One compound from article PMC9120017, “Inhibition mechanism of the chloride channel TMEM16A by the pore blocker 1PBC” (Nature Communications, 2022) can be followed below.

Molecules are shown by their SMILES.

The assay concerns the target T1, wild-type mouse TMEM16A (Mus musculus, UniProt Q8BHY3).
T1 construct: expressed in transfected cells; host or cells: HEK293T
T1 sequence (Q8BHY3 1-960): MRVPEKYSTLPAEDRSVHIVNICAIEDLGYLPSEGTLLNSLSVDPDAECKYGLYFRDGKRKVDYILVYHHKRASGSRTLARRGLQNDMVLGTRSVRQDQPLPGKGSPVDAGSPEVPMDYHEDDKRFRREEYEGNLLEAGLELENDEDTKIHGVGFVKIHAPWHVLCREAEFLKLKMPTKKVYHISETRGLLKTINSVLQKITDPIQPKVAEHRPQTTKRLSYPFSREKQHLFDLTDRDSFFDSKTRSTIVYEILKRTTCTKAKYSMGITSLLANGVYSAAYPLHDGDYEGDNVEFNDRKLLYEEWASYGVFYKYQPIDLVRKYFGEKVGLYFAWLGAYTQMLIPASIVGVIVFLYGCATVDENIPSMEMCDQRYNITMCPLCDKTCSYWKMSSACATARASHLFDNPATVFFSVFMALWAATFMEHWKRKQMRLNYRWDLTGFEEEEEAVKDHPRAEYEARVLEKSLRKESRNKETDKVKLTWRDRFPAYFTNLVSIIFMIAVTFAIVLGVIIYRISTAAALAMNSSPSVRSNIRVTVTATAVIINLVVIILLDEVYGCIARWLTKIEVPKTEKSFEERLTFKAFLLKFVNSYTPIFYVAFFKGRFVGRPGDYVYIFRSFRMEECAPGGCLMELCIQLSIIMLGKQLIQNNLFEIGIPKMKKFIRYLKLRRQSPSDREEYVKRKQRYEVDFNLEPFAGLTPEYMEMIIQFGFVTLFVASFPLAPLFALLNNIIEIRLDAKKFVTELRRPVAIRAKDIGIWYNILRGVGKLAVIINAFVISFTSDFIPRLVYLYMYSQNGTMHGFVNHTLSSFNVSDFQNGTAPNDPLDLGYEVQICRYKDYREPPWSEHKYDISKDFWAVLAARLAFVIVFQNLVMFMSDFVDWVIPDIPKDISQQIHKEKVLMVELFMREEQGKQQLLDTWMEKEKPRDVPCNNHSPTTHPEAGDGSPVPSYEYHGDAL
The assay can be described thus: Ultra-fast concentration-jump experiments, kinetics of 1PBC block in inside-out patches. It counts as cell-based. The note with it: 3 µM 1PBC; excised patches, ultra-fast perfusion. The protocol:
HEK293T cells were transfected with 3–4 μg DNA per 6 cm Petri dish using the calcium phosphate co-precipitation method and were used within 24–96 h after transfection. Recordings were performed on inside-out patches excised from HEK293T cells expressing the construct of interest. Patch pipettes were pulled from borosilicate glass capillaries (O.D. 1.5 mm, I.D. 0.86 mm, Sutter Instrument) and were fire-polished with a microforge (Narishige) before use. Pipette resistance was typically 3–8 MΩ when filled with the recording solutions detailed below. Seal resistance was typically 4 GΩ or higher. Voltage-clamp recordings were made using Axopatch 200B, Digidata 1550, and Clampex 10.7 (Molecular Devices). Analog signals were filtered with the in-built 4-pole Bessel filter at 10 kHz and were digitized at 20 kHz. Solution exchange was achieved using a gravity-fed system through a theta glass pipette mounted on an ultra-fast piezo-driven stepper (Siskiyou). […] All recordings were performed at 20 °C.
Supplementary Fig. 2: State dependence of 1PBC block. a, Kinetics of 1PBC block at an intermediate 1PBC concentration and the indicated sub- saturating Ca2+ concentrations in ultra-fast concentration- jump experiments at + 8 0 m V in the inside- out configuration. 1PBC was applied from the intracellular side. […] 6 µM (as determined in Fig. 2a, b) and kon = 1 x 106 M-1s-1. […]

For `N#Cc1c(C(F)(F)F)cc(O)n2c1nc1ccccc12` [1PBC], the “Kinetics of block (time constant)” value is listed as ~ 50 ms.
